Laboratory results published in US20260001875A1, “AMINOPYRIMIDINYL DERIVATIVES FOR THE TREATMENT OF PARKINSON'S DISEASE” (UNIVERSITY OF DUNDEE, priority 2022, published 2026).
Entries after “also recorded” stand apart in the source; their conditions may differ.

Key:
[1] = Stability in mouse plasma; format: in vitro ADME; conditions: read-out: T1/2 in mouse plasma
[2] = Pharmacokinetic study in mice (plasma, brain, CSF); format: in vivo, mouse; conditions: for AUC(0-inf) / AUC(0-t) / half-life: male, C57BL/6, mouse; for half-life: read-out: metabolic half-life (converted)
Method: PK profiling was outsourced and undertaken by Shanghai ChemPartner Co., Ltd. All animal experiments performed were conducted in compliance with the Institutional Animal Care and Use Committee (IACUC) and the Office of Laboratory Animal Welfare (OLAW) guidelines. Six- to eight-week-old C57BL/6 male mice purchased from Jihui Laboratory Animal Co. LTD were used in the study. […] The animals were restrained manually at the designated time points (0.083, 0.25, 0.5, 1, 2, 4, and 8 h); approximately, 110 μL of blood sample was collected via facial vein into K2EDTA tubes. Three mice per time point were used, resulting in a total of 21 mice for each administration route. The blood sample was put on ice and centrifuged at 2000 g for 5 min to obtain the plasma sample within 15 min. The plasma, brain, CSF samples were stored at approximately −70° C. until analysis. A 30 μL aliquot of plasma was added with 200 μL of internal standard (Glipozode, 40 ng/mL) in MeCN with 5% citri. The mixture was then vortexed for 1 min and then centrifuged for 10 min at 5800 rpm. The supernatant (100 μL) was transferred to a new plate. The solvent (1 μL) was injected to LC-MS/MS. LC-MS/MS instrument used: SCIEX LC-MS/MS-49 (Triple Quad 6500+). Data was analyzed by WinNonLin and Microsoft Excel.

[3] = CSF, intravenous 5 mg/Kg single dose
[4] = brain, gavage (oral) 30 mg/Kg single dose
[5] = brain, intraperitoneal 30 mg/Kg single dose
[6] = brain, intravenous 5 mg/Kg single dose
[7] = ip, brain, intraperitoneal 30 mg/Kg single dose
[8] = gavage (oral) 30 mg/Kg single dose
[9] = intraperitoneal 30 mg/Kg single dose

In the case of `CNc1nc(Nc2ccc(C(=O)N3CCN(C[C@H]4CC[C@H](CSC(C)(C)[C@H](NC(=O)C5(F)CC5)C(=O)N5C[C@H](O)CC5C(=O)NCc5ccc(-c6scnc6C)cc5)CC4)CC3)cc2OC)ncc1Cl` (stereo partly drawn) [XL01126, (2S,4R)-1-((R)-3-((((1R,4R)-4-((4-(4-((5-chloro-4-(methylamino)pyrimidin-2-yl)amino)-3-methoxybenzoyl)piperazin-1-yl)methyl)cyclohexyl)methyl)thio)-2-(1-fluorocyclopropane-1-carboxamido)-3-methylbutanoyl)-4-hydroxy-N-(4-(4-methylthiazol-5-yl)benzyl)pyrrolidine-2-carboxamide], the half-life [1] is reported as 1.8 h, the “maximum concentration in cerebrospinal fluid (CSF)” value [2, 3] is reported as 27.4 ng/mL and the “time of maximum concentration in CSF” value [2, 3] is reported as 0.083 h. The “maximum concentration in brain tissue” value [2, 4] was 27 ng/mL, the “time of maximum concentration in brain tissue” value (“time … in brain tissue” for short) [2, 4] was 2 h and the “maximum concentration in brain tissue” value [2, 5] was 218 ng/mL. For the same compound, the “time … in brain tissue” value [2, 5] was 0.5 h, the “maximum concentration in brain tissue” value [2, 6] was 155 ng/mL and the “time … in brain tissue” value [2, 6] was 0.083 h. The “reaches CSF (in words)” value ([2]; intraperitoneal 30 mg/Kg and orally 30 mg/Kg) was “also reaches CSF”, the “blood brain barrier penetration (in words)” value ([2]; intravenous 5 mg/Kg, intraperitoneal 30 mg/Kg, oral 30 mg/Kg) was “capable of penetrating blood brain barrier; also recorded: can penetrant blood brain barrier” and the AUC(0-inf) [2, 3] was 240 ng·h/mL. The AUC(0-t) [2, 3] was 107 ng·h/mL, the half-life [2, 3] was 8.59 h and the AUC(0-inf) [2, 4] was 402 ng·h/mL. The AUC(0-t) [2, 4] was 142 ng·h/mL, the half-life [2, 4] was 10.7 h and the AUC(0-inf) [2, 6] was 349 ng·h/mL. For the same compound, the AUC(0-t) [2, 6] was 258 ng·h/mL, the half-life [2, 6] was 3.67 h and the AUC(0-inf) [2, 7] was 884 ng·h/mL. It also gave an AUC(0-t) [2, 7] of 752 ng·h/mL, a half-life [2, 7] of 2.79 h and a maximum plasma concentration [2, 8] of 3620 ng/mL. The “time of maximum plasma concentration” value [2, 8] was 2 h, the maximum plasma concentration [2, 9] was 7700 ng/mL and the “time of maximum plasma concentration” value [2, 9] was 0.25 h.
